Read-outs that look alike come from different tables or passages of the source. Marks after values point to notes of the source that are not given here.
Format: in vivo, SD rats
Protocol: Toxicity studies were conducted at Biotoxtech (Korea) under review and approval from IACUC (170842, 180144, 170889) of Biotoxtech. All animals used in the toxicity test were purchased from OrientBio (Korea).
A subchronic toxicity study was performed for PP2S. Female and male rats were divided into a control group (0 mg/kg/day, n = 15), a low-dose group (167 mg/kg/day, n = 10), a medium-dose group (500 mg/kg/day, n = 10), and a high-dose group (1,500 mg/kg/day, n = 15), respectively. Thus, there were a total of 8 groups. The drug was administered by oral gavage at 10 mL/kg body weight daily for 4 weeks. Five animals each in the control and high-dose groups continued their treatments for 2 more weeks. Clinical symptoms were observed, and body weight was measured during the test period for a total of 6 weeks; 0.5% methyl cellulose 1,500 cP (Sigma, USA) in water for injection (JW Pharmaceutical, Korea) was used as a vehicle. Control animals were treated with only the same volume of the vehicle.
Organ weights were measured while conducting a 4-week repeated oral toxicity study for PP2S. For all animals, wet weight of the following organs were measured, and the relative organ weight ratio to the fasted body weight was calculated. Organs with left and right sides were weighed together. […] In addition, changes observed with statistical significance in females of the recovery group were minor changes, which were not observed in the main test group. They were not accompanied by other related changes. Thus, they were judged to have no toxicological significance.

[1] = female, 167 mg/kg, dosing period
[2] = female, 500 mg/kg, dosing period
[3] = female, 1,500 mg/kg, dosing period
[4] = female, 1,500 mg/kg, recovery period
[5] = male, 1,500 mg/kg, dosing period
[6] = male, 1,500 mg/kg, recovery period
[7] = up to 1,500 mg/kg/day oral, 4 weeks of administration and 2 weeks of recovery

SMILES: CCCCOc1ccc2cc(CN3C(=O)CC[C@H]3C(=O)OC)c3cc(OC)c(OC)cc3c2c1 [PP2S, Methyl (S)-1-((3-butoxy-6,7-dimethoxyphenanthren-9-yl)methyl)-5-oxopyrrolidine-2-carboxylate]
- effect on organ weights (all administration groups, male and female, main test and recovery group): effect of the test substance was not recognized
- B.W. (mean) [1]: 218.0 g
- Mean absolute organ weight, Adrenal [1]: 0.0775 g
- Mean absolute organ weight, Heart [1]: 0.87 g
- Mean absolute organ weight, Kidney [1]: 1.77 g
- Mean absolute organ weight, Liver [1]: 6.63 g
- Mean absolute organ weight, Lung [1]: 1.09 g
- Mean absolute organ weight, Ovary [1]: 0.0898 g
- Mean absolute organ weight, Pituitary [1]: 0.0140 g
- Mean absolute organ weight, Spleen [1]: 0.50 g
- Mean absolute organ weight, Uterus [1]: 0.52 g
- Mean relative organ weight, Adrenal [1]: 0.0357 g/100g body weight
- Mean relative organ weight, Brain [1]: 0.83 g/100g body weight
- Mean relative organ weight, Heart [1]: 0.40 g/100g body weight
- Mean relative organ weight, Kidney [1]: 0.81 g/100g body weight
- Mean relative organ weight, Liver [1]: 3.05 g/100g body weight
- Mean relative organ weight, Lung [1]: 0.50 g/100g body weight
- Mean relative organ weight, Ovary [1]: 0.0410 g/100g body weight
- Mean relative organ weight, Pituitary [1]: 0.0065 g/100g body weight
- Mean relative organ weight, Spleen [1]: 0.23 g/100g body weight
- Mean relative organ weight, Uterus [1]: 0.24 g/100g body weight
- B.W. (mean) [2]: 224.1 g
- Mean absolute organ weight, Adrenal [2]: 0.0755 g
- Mean absolute organ weight, Heart [2]: 0.89 g
- Mean absolute organ weight, Kidney [2]: 1.70 g
- Mean absolute organ weight, Liver [2]: 6.67 g
- Mean absolute organ weight, Lung [2]: 1.10 g
- Mean absolute organ weight, Ovary [2]: 0.0846 g
- Mean absolute organ weight, Pituitary [2]: 0.0139 g
- Mean absolute organ weight, Spleen [2]: 0.47 g
- Mean absolute organ weight, Uterus [2]: 0.53 g
- Mean relative organ weight, Adrenal [2]: 0.0337 g/100g body weight
- Mean relative organ weight, Brain [2]: 0.78 g/100g body weight
- Mean relative organ weight, Heart [2]: 0.40 g/100g body weight
- Mean relative organ weight, Kidney [2]: 0.76 g/100g body weight
- Mean relative organ weight, Liver [2]: 2.97 g/100g body weight
- Mean relative organ weight, Lung [2]: 0.49 g/100g body weight
- Mean relative organ weight, Ovary [2]: 0.0381 g/100g body weight
- Mean relative organ weight, Pituitary [2]: 0.0062 g/100g body weight
- Mean relative organ weight, Spleen [2]: 0.21 g/100g body weight
- Mean relative organ weight, Uterus [2]: 0.24 g/100g body weight
- B.W. (mean) [3]: 217.3 g
- Mean absolute organ weight, Adrenal [3]: 0.0730 g
- Mean absolute organ weight, Brain [3]: 1.86 g
- Mean absolute organ weight, Heart [3]: 0.84 g
- Mean absolute organ weight, Kidney [3]: 1.72 g
- Mean absolute organ weight, Liver [3]: 6.49 g
- Mean absolute organ weight, Lung [3]: 1.11 g
- Mean absolute organ weight, Ovary [3]: 0.0874 g
- Mean absolute organ weight, Pituitary [3]: 0.0139 g
- Mean absolute organ weight, Spleen [3]: 0.48 g
- Mean absolute organ weight, Uterus [3]: 0.47 g
- Mean relative organ weight, Adrenal [3]: 0.0335 g/100g body weight
- Mean relative organ weight, Brain [3]: 0.84 g/100g body weight
- Mean relative organ weight, Heart [3]: 0.38 g/100g body weight
- Mean relative organ weight, Kidney [3]: 0.79 g/100g body weight
- Mean relative organ weight, Liver [3]: 2.98 g/100g body weight
- Mean relative organ weight, Lung [3]: 0.51 g/100g body weight
- Mean relative organ weight, Ovary [3]: 0.0402 g/100g body weight
- Mean relative organ weight, Pituitary [3]: 0.0064 g/100g body weight
- Mean relative organ weight, Spleen [3]: 0.22 g/100g body weight
- Mean relative organ weight, Uterus [3]: 0.22 g/100g body weight
- B.W. (mean) [4]: 248.7 g
- Mean absolute organ weight, Adrenal [4]: 0.0723 g
- Mean absolute organ weight, Brain [4]: 1.86 g
- Mean absolute organ weight, Heart [4]: 0.91 g
- Mean absolute organ weight, Kidney [4]: 1.73 g
- Mean absolute organ weight, Liver [4]: 7.01 * g
- Mean absolute organ weight, Lung [4]: 1.17 * g
- Mean absolute organ weight, Ovary [4]: 0.1012 g
- Mean absolute organ weight, Pituitary [4]: 0.0154 g
- Mean absolute organ weight, Spleen [4]: 0.54 g
- Mean absolute organ weight, Uterus [4]: 0.54 g
- Mean relative organ weight, Adrenal [4]: 0.0291 g/100g body weight
- Mean relative organ weight, Brain [4]: 0.75 g/100g body weight
- Mean relative organ weight, Heart [4]: 0.37 g/100g body weight
- Mean relative organ weight, Kidney [4]: 0.69 g/100g body weight
- Mean relative organ weight, Liver [4]: 2.81 g/100g body weight
- Mean relative organ weight, Lung [4]: 0.48 g/100g body weight
- Mean relative organ weight, Ovary [4]: 0.0407 g/100g body weight
- Mean relative organ weight, Pituitary [4]: 0.0062 g/100g body weight
- Mean relative organ weight, Spleen [4]: 0.22 g/100g body weight
- Mean relative organ weight, Uterus [4]: 0.22 g/100g body weight
- B.W. (mean) (male, 167 mg/kg, dosing period): 363.4 g
- Mean absolute organ weight, Adrenal (male, 167 mg/kg, dosing period): 0.0619 g
- Mean absolute organ weight, Brain (male, 167 mg/kg, dosing period): 1.79 g
- Mean absolute organ weight, Heart (male, 167 mg/kg, dosing period): 1.33 g
- Mean absolute organ weight, Kidney (male, 167 mg/kg, dosing period): 2.59 g
- Mean absolute organ weight, Liver (male, 167 mg/kg, dosing period): 10.38 g
- Mean absolute organ weight, Lung (male, 167 mg/kg, dosing period): 1.42 g
- Mean absolute organ weight, Pituitary (male, 167 mg/kg, dosing period): 0.0109 g
- Mean absolute organ weight, Prostate (male, 167 mg/kg, dosing period): 0.40 g
- Mean absolute organ weight, Spleen (male, 167 mg/kg, dosing period): 0.69 g
- Mean absolute organ weight, Testis (male, 167 mg/kg, dosing period): 3.22 g
- Mean relative organ weight, Adrenal (male, 167 mg/kg, dosing period): 0.0170 g/100g body weight
- Mean relative organ weight, Brain (male, 167 mg/kg, dosing period): 0.54 g/100g body weight
- Mean relative organ weight, Heart (male, 167 mg/kg, dosing period): 0.37 g/100g body weight
- Mean relative organ weight, Kidney (male, 167 mg/kg, dosing period): 0.72 g/100g body weight
- Mean relative organ weight, Liver (male, 167 mg/kg, dosing period): 2.86 g/100g body weight
- Mean relative organ weight, Lung (male, 167 mg/kg, dosing period): 0.39 g/100g body weight
- Mean relative organ weight, Pituitary (male, 167 mg/kg, dosing period): 0.0030 g/100g body weight
- Mean relative organ weight, Prostate (male, 167 mg/kg, dosing period): 0.11 g/100g body weight
- Mean relative organ weight, Spleen (male, 167 mg/kg, dosing period): 0.19 g/100g body weight
- Mean relative organ weight, Testis (male, 167 mg/kg, dosing period): 0.89 g/100g body weight
- B.W. (mean) (male, 500 mg/kg, dosing period): 363.5 g
- Mean absolute organ weight, Adrenal (male, 500 mg/kg, dosing period): 0.0622 g
- Mean absolute organ weight, Brain (male, 500 mg/kg, dosing period): 1.74 g
- Mean absolute organ weight, Heart (male, 500 mg/kg, dosing period): 1.31 g
- Mean absolute organ weight, Kidney (male, 500 mg/kg, dosing period): 2.67 g
- Mean absolute organ weight, Liver (male, 500 mg/kg, dosing period): 10.46 g
- Mean absolute organ weight, Lung (male, 500 mg/kg, dosing period): 1.41 g
- Mean absolute organ weight, Pituitary (male, 500 mg/kg, dosing period): 0.0119 g
- Mean absolute organ weight, Prostate (male, 500 mg/kg, dosing period): 0.49 g
- Mean absolute organ weight, Spleen (male, 500 mg/kg, dosing period): 0.69 g
- Mean absolute organ weight, Testis (male, 500 mg/kg, dosing period): 3.32 g
- Mean relative organ weight, Adrenal (male, 500 mg/kg, dosing period): 0.0171 g/100g body weight
- Mean relative organ weight, Brain (male, 500 mg/kg, dosing period): 0.55 g/100g body weight
- Mean relative organ weight, Heart (male, 500 mg/kg, dosing period): 0.36 g/100g body weight
- Mean relative organ weight, Kidney (male, 500 mg/kg, dosing period): 0.74 g/100g body weight
- Mean relative organ weight, Liver (male, 500 mg/kg, dosing period): 2.87 g/100g body weight
- Mean relative organ weight, Lung (male, 500 mg/kg, dosing period): 0.39 g/100g body weight
- Mean relative organ weight, Pituitary (male, 500 mg/kg, dosing period): 0.0033 g/100g body weight
- Mean relative organ weight, Prostate (male, 500 mg/kg, dosing period): 0.14 g/100g body weight
- Mean relative organ weight, Spleen (male, 500 mg/kg, dosing period): 0.19 g/100g body weight
- Mean relative organ weight, Testis (male, 500 mg/kg, dosing period): 0.91 g/100g body weight
- B.W. (mean) [5]: 366.0 g
- Mean absolute organ weight, Adrenal [5]: 0.0630 g
- Mean absolute organ weight, Brain [5]: 1.81 g
- Mean absolute organ weight, Heart [5]: 1.33 g
- Mean absolute organ weight, Kidney [5]: 2.63 g
- Mean absolute organ weight, Liver [5]: 10.79 g
- Mean absolute organ weight, Lung [5]: 1.45 g
- Mean absolute organ weight, Pituitary [5]: 0.0113 g
- Mean absolute organ weight, Prostate [5]: 0.45 g
- Mean absolute organ weight, Spleen [5]: 0.74 g
- Mean absolute organ weight, Testis [5]: 3.35 g
- Mean relative organ weight, Adrenal [5]: 0.0172 g/100g body weight
- Mean relative organ weight, Brain [5]: 0.54 g/100g body weight
- Mean relative organ weight, Heart [5]: 0.37 g/100g body weight
- Mean relative organ weight, Kidney [5]: 0.72 g/100g body weight
- Mean relative organ weight, Liver [5]: 2.94 g/100g body weight
- Mean relative organ weight, Lung [5]: 0.40 g/100g body weight
- Mean relative organ weight, Pituitary [5]: 0.0031 g/100g body weight
- Mean relative organ weight, Prostate [5]: 0.12 g/100g body weight
- Mean relative organ weight, Spleen [5]: 0.20 g/100g body weight
- Mean relative organ weight, Testis [5]: 0.92 g/100g body weight
- B.W. (mean) [6]: 419.4 g
- Mean absolute organ weight, Adrenal [6]: 0.0595 g
- Mean absolute organ weight, Heart [6]: 1.36 g
- Mean absolute organ weight, Kidney [6]: 2.73 g
- Mean absolute organ weight, Liver [6]: 11.62 g
- Mean absolute organ weight, Lung [6]: 1.61 g
- Mean absolute organ weight, Prostate [6]: 0.59 g
- Mean absolute organ weight, Spleen [6]: 0.72 g
- Mean absolute organ weight, Testis [6]: 3.48 g
- Mean relative organ weight, Adrenal [6]: 0.0140 g/100g body weight
- Mean relative organ weight, Brain [6]: 0.48 g/100g body weight
- Mean relative organ weight, Heart [6]: 0.33 g/100g body weight
- Mean relative organ weight, Kidney [6]: 0.65 g/100g body weight
- Mean relative organ weight, Liver [6]: 2.76 g/100g body weight
- Mean relative organ weight, Lung [6]: 0.38 g/100g body weight
- Mean relative organ weight, Pituitary [6]: 0.0028 g/100g body weight
- Mean relative organ weight, Prostate [6]: 0.14 g/100g body weight
- Mean relative organ weight, Spleen [6]: 0.17 g/100g body weight
- Mean relative organ weight, Testis [6]: 0.83 g/100g body weight
- organ weight/histopathological changes (up to 1,500 mg/kg/day oral, 4 weeks): no organ weight/histopathological changes were observed
- change in body weight compared to control group [7]: did not lead to a significant change
- death or abnormal clinical symptoms [7]: did not cause death or abnormal clinical symptoms
